Data reported in article PMC3961306, “Comparison of the Cancer Gene Targeting and Biochemical Selectivities of All Targeted Kinase Inhibitors Approved for Clinical Use” (PLoS ONE, 2014).

Key:
Test in all cases: Kinase profiling in a biochemical assay panel (mobility shift assays and ELISA), %-inhibition at 1 μM; selectivity entropy
[1] = target: panel of more than 300 wild-type and mutant kinases (313 kinase panel) (Homo sapiens, UniProt Q9H4B4)
[2] = target: panel of more than 300 wild-type and mutant kinases (313 kinase panel) (Homo sapiens, UniProt P21802)
[3] = target: panel of more than 300 wild-type and mutant kinases (313 kinase panel) (Homo sapiens, UniProt P11309)
[4] = target: T1, panel of more than 300 wild-type and mutant kinases (313 kinase panel) (Homo sapiens, UniProt Q9UL54)
T1 sequence (Q9UL54 1-1235): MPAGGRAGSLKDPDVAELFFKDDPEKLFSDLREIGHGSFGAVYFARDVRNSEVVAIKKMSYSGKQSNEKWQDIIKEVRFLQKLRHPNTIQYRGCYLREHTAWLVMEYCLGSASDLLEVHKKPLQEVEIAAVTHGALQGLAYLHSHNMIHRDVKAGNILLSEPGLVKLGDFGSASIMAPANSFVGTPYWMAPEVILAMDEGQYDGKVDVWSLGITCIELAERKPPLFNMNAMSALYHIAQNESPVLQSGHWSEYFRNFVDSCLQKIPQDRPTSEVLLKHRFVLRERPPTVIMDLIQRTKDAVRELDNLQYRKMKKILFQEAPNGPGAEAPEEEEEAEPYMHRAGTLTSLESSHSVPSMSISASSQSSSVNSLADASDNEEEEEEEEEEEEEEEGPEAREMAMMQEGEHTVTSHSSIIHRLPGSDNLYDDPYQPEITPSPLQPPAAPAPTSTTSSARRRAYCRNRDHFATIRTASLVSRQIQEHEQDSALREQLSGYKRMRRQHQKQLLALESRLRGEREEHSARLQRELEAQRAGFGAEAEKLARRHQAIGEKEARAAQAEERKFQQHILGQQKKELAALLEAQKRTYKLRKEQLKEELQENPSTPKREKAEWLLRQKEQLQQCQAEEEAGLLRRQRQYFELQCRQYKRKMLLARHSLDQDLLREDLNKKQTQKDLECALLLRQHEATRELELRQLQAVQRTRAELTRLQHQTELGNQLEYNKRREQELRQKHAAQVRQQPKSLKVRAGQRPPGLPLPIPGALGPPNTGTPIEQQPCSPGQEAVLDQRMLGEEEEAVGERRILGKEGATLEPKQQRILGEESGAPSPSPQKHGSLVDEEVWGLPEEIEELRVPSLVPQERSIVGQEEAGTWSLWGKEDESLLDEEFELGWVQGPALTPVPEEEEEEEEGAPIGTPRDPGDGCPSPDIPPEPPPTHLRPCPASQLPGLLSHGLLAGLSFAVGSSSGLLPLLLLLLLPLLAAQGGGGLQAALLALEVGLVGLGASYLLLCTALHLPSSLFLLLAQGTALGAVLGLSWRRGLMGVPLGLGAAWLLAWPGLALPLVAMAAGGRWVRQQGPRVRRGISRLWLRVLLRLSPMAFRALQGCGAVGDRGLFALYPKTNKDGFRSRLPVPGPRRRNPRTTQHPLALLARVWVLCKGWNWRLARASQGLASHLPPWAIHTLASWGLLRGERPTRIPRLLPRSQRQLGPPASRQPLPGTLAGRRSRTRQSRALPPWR

[5] = target: T2, panel of more than 300 wild-type and mutant kinases (313 kinase panel) (Homo sapiens, UniProt O00141)
T2 sequence (O00141 1-431): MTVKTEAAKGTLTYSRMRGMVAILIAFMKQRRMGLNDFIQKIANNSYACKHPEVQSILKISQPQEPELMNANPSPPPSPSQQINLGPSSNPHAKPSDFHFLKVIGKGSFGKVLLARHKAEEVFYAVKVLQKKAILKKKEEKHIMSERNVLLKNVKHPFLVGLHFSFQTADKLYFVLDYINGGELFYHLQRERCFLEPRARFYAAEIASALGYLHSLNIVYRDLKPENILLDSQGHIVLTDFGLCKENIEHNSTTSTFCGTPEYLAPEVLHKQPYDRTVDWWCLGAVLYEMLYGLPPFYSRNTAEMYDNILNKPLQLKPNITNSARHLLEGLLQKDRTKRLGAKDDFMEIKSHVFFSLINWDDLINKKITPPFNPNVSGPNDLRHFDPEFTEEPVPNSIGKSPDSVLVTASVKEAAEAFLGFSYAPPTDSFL

Sequence of panel of more than 300 wild-type and mutant kinases (313 kinase panel) (Homo sapiens, UniProt Q9H4B4) (Q9H4B4 whole entry, change not shown): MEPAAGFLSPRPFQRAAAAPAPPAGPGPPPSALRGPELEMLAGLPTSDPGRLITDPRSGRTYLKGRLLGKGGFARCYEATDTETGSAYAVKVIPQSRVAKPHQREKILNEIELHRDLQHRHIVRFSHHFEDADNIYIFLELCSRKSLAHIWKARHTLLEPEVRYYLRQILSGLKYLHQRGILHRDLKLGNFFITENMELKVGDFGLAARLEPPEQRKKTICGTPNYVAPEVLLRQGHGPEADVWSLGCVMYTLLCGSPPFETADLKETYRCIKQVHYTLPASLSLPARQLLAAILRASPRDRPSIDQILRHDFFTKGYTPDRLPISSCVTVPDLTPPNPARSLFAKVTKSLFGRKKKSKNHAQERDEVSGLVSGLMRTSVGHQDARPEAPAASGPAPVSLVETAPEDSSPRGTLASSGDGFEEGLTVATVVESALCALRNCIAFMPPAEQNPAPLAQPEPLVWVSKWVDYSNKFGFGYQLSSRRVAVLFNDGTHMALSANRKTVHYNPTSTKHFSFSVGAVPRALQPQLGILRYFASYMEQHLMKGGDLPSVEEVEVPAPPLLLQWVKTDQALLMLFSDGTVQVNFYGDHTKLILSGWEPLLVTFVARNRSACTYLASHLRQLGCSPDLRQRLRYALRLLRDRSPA

SMILES | %-inhibition of PLK3 ([1]; kinase PLK3, 1 μM) [%] | %-inhibition of FGFR2 ([2]; kinase FGFR2, compound at 1 μM) [%] | %-inhibition of PIM1 ([3]; kinase PIM1, 1 μM) [%] | %-inhibition of TAOK2 ([4]; kinase TAOK2, 1 μM) [%] | %-inhibition of SGK ([5]; kinase SGK, 1 μM) [%] | %-inhibition of PLK3 ([1]; 1 µM) [%] | %-inhibition of FGFR2 ([2]; 1 µM) [%] | %-inhibition of PIM1 ([3]; 1 µM) [%] | %-inhibition of TAOK2 ([4]; 1 µM) [%] | %-inhibition of SGK ([5]; 1 µM) [%]
CO[C@H]1C[C@@H]2CC[C@@H](C)[C@@](O)(O2)C(=O)C(=O)N2CCCC[C@H]2C(=O)O[C@H]([C@H](C)C[C@@H]2CC[C@@H](OCCO)[C@H](OC)C2)CC(=O)[C@H](C)/C=C(\C)[C@@H](O)[C@@H](OC)C(=O)[C@H](C)C[C@H](C)/C=C/C=C/C=C/1C [everolimus] | -1.66 | -10 | -9 | -0.8 | -6.59 |  |  |  |  | 
CCN(CC)CCNC(=O)c1c(C)[nH]c(/C=C2\C(=O)Nc3ccc(F)cc32)c1C [sunitinib] |  | 97 |  |  | 60 |  |  |  |  | 
CC(=O)Nc1cccc(-n2c(=O)n(C3CC3)c(=O)c3c(Nc4ccc(I)cc4F)n(C)c(=O)c(C)c32)c1 [trametinib] | -6.59 | -2.64 | 4.44 | -2.59 | 0.217 |  |  |  |  | 
O=S(=O)(c1cccc2cnccc12)N1CCCNCC1 [fasudil] | -4.66 | -1.76 | 3 | -2.59 | 2.82 |  |  |  |  | 
N#CC[C@H](C1CCCC1)n1cc(-c2ncnc3[nH]ccc23)cn1 [ruxolitinib] | 13 | 29 | -8 | 35 | -2.44 |  |  |  |  | 
COc1cc2nccc(Oc3ccc(NC(=O)C4(C(=O)Nc5ccc(F)cc5)CC4)cc3)c2cc1OC [cabozantinib] | -1.07 | 32 | -10 | 6 | -2 |  |  |  |  | 
CC(C)(C)c1nc(-c2cccc(NS(=O)(=O)c3c(F)cccc3F)c2F)c(-c2ccnc(N)n2)s1 [dabrafenib] |  | 4 |  | 34 | 4 |  |  |  |  | 
C[C@@H](Oc1cc(-c2cnn(C3CCNCC3)c2)cnc1N)c1c(Cl)ccc(F)c1Cl [crizotinib] | -2.24 | 27 | -7 | 33 | 1.46 |  |  |  |  | 
CCCS(=O)(=O)Nc1ccc(F)c(C(=O)c2c[nH]c3ncc(-c4ccc(Cl)cc4)cc23)c1F [vemurafenib] | -2.83 | 10 | -3.41 | 5.35 | -0.122 |  |  |  |  | 
COc1cc2c(Nc3ccc(Br)cc3F)ncnc2cc1OCC1CCN(C)CC1 [vandetanib] | -6 | 103 | -9 | -3.51 | -4.51 |  |  |  |  | 
C#Cc1cccc(Nc2ncnc3cc(OCCOC)c(OCCOC)cc23)c1 [erlotinib] |  |  |  |  |  | 6 | 58 | 6 | -8 | 6
CNC(=O)c1cc(Oc2ccc(NC(=O)Nc3ccc(Cl)c(C(F)(F)F)c3)c(F)c2)ccn1 [regorafenib] | 2.24 | 103 | -9 | 75 | -5.37 |  |  |  |  | 
Cc1ccc(C(=O)Nc2ccc(CN3CCN(C)CC3)c(C(F)(F)F)c2)cc1C#Cc1cnc2cccnn12 [ponatinib] | -11 | 100 |  | 74 | 7.57 |  |  |  |  | 
Cc1ccc(Nc2nccc(N(C)c3ccc4c(C)n(C)nc4c3)n2)cc1S(N)(=O)=O [pazopanib] | 9 | 97 | -1.49 | 53 | -1.12 |  |  |  |  | 
CO[C@H]1C[C@@H]2CC[C@@H](C)[C@@](O)(O2)C(=O)C(=O)N2CCCC[C@H]2C(=O)O[C@H]([C@H](C)C[C@@H]2CC[C@@H](OC(=O)C(C)(CO)CO)[C@H](OC)C2)CC(=O)[C@H](C)/C=C(\C)[C@@H](O)[C@@H](OC)C(=O)[C@H](C)C[C@H](C)/C=C/C=C/C=C/1C [temsirolimus] | -4.39 | -9 | -8 |  | -3.17 |  |  |  |  | 
Cc1cn(-c2cc(NC(=O)c3ccc(C)c(Nc4nccc(-c5cccnc5)n4)c3)cc(C(F)(F)F)c2)cn1 [nilotinib] | 26 |  | 8 | 7.47 | 9 |  | -67 |  |  | 
Cc1nc(Nc2ncc(C(=O)Nc3c(C)cccc3Cl)s2)cc(N2CCN(CCO)CC2)n1 [dasatinib] | 10 |  |  |  | 6 |  |  |  |  | 
COc1cc(Nc2c(C#N)cnc3cc(OCCCN4CCN(C)CC4)c(OC)cc23)c(Cl)cc1Cl [bosutinib] | 0.877 |  |  | 10 | -5 |  |  |  |  | 
CS(=O)(=O)CCNCc1ccc(-c2ccc3ncnc(Nc4ccc(OCc5cccc(F)c5)c(Cl)c4)c3c2)o1 [lapatinib] | 6 |  | 0.601 | -5.44 | 2.49 |  | 0.434 |  |  | 
